Results taken from publication PMC4975464, “FITC Conjugation Markedly Enhances Hepatic Clearance of N-Formyl Peptides” (PLoS ONE, 2016).

How the values were obtained:
human LSECs (hLSECs) = test: Endocytosis competition of FITC-fNLPNTL uptake, fluorescence microscopy; type: cell-based; details: primary hLSECs, 4 h serum starved, 100 μg/ml competitor pre-incubated 30 min, then 20 μg/ml FITC-fNLPNTL 60 min at 37°C
Description: Human hepatocytes (hHeps) and LSECs (hLSECs) were isolated from encapsulated liver resections based on a method described elsewhere. The procedure involves collagenase perfusion through cut blood vessels exposed on the surface of the liver resection. hHeps were isolated by low speed differential centrifugation, and the hLSECs purified by immunomagnetic isolation using mouse anti-human CD32 (Fitzgeralg Industries International INC, North Acton, MA, USA) and Dynabeads® Sheep anti-mouse IgG (Thermo Scientific, Oslo, Norway). The viability of hLSECs as judged by trypan blue exclusion was 95%, and the yield of hLSECs varied from 1 to 10 million depending on the size of the liver resection. […]
(§1) Primary cultures of mouse and human Heps and LSECs were seeded on Permanox chamber slides coated with human fibronectin. […] After removal of unbound ligand by extensive washing with PBS, the cultures were fixed with 4% PFA and processed for fluorescence microscopy as described above.
(§2) After the removal of unbound ligands by extensive washing with PBS, the cultures were fixed with 4% PFA and processed for fluorescence microscopy.
(§3) Primary cultures of hLSECs (A) and mLSECs (B) were established on Permanox chamber slides coated with human fibronectin. […] After removal of unbound ligands by extensive washing with PBS, the cultures were fixed with 4% PFA and processed for fluorescence microscopy.

mouse LSECs (mLSECs) = test: as above; type: cell-based; details: primary mLSECs, 4 h serum starved, 100 μg/ml competitor pre-incubated 30 min, then 20 μg/ml FITC-fNLPNTL 60 min at 37°C
Experimental: Mouse Heps (mHeps) and LSECs (mLSECs) were prepared by collagenase (Liberase) perfusion of mouse livers, followed by a low-speed differential centrifugation to separate Heps, and density sedimentation of the non-Heps enriched in the supernatant, on 25%– 45% Percoll gradients to collect LSECs and Kupffer cells (KCs), as described. Mouse LSECs were obtained after a panning step of 8 min at 37°C to remove KCs. The purity of mLSECs was between 90 and 95% as judged by fenestration assessed by scanning electron microscopy and positive immunostaining for the LSEC specific marker, stabilin 2. The remaining 5–10% of cells in these cultures represented KCs/monocytes and stellate cells. […]
as §1, §2, §3

[1] = Anatomical distribution of i.v. injected 125I-labeled peptides; type: in vivo; details: C57BL/6 mice, 8 μg 125I-labeled peptide i.v., n = 2 per group
Experimental: Unconjugated fNLPNTL and FITC- fNLPNTL were reconstituted at a concentration of 4 mg/ml in DMSO. […] of the solution, corresponding to 100 μg of each peptide was further diluted in PBS to a final volume of 200 μl and incubated with carrier-free Na^125I for 1h at RT, using Iodogen as described by the manufacturer. The labeled peptides were separated from unbound ^125I by elution with PBS through PD-10 columns. The specific radioactivities were 0.98 x 10^6 cpm/μg and 0.12 x 10^6 cpm/μg for ^125I-FITC-fNLPNTL and ^125I-fNLPNTL, respectively.
Prior to experiments, mice were weighed and pre-warmed in a temperature controlled chamber to stimulate dilation of the tail veins. […] The amount of radioactivity was measured in all organs and in the blood sample. The radioactivity per total volume of blood was calculated considering that the average amount of blood in a mouse is approximately 58.5 ml per kg of bodyweight (according to the National Centre for the Replacement Refinement & Reduction of Animals in Research). The amount of tracer recovered was the sum of radioactivity of individual organs, carcass and the radioactivity calculated in total blood volume.
Fig 2 Anatomical distribution of i.v. administered fNLPNTL. […] Blood, internal organs and carcass were harvested and analyzed for radioactivity. […]

[2] = tested on: human hepatocytes (hHeps); test: Endocytosis competition of FITC-fNLPNTL uptake, fluorescence microscopy; type: cell-based; details: primary hHeps, 4 h serum starved, 100 μg/ml competitor pre-incubated 30 min, then 20 μg/ml FITC-fNLPNTL 60 min at 37°C
Description: Human hepatocytes (hHeps) and LSECs (hLSECs) were isolated from encapsulated liver resections based on a method described elsewhere. The procedure involves collagenase perfusion through cut blood vessels exposed on the surface of the liver resection. hHeps were isolated by low speed differential centrifugation, and the hLSECs purified by immunomagnetic isolation using mouse anti-human CD32 (Fitzgeralg Industries International INC, North Acton, MA, USA) and Dynabeads® Sheep anti-mouse IgG (Thermo Scientific, Oslo, Norway). The viability of hLSECs as judged by trypan blue exclusion was 95%, and the yield of hLSECs varied from 1 to 10 million depending on the size of the liver resection. The purity of the hLSECs isolation was between 85 and 95%, as judged by light microscopy. This variation in purity is due to donor variation. […]
as §1, §2

mouse Heps (mHeps) = test: as above; type: cell-based; details: primary mHeps, 4 h serum starved, 100 μg/ml competitor pre-incubated 30 min, then 20 μg/ml FITC-fNLPNTL 60 min at 37°C
Experimental: Mouse Heps (mHeps) and LSECs (mLSECs) were prepared by collagenase (Liberase) perfusion of mouse livers, followed by a low-speed differential centrifugation to separate Heps, and density sedimentation of the non-Heps enriched in the supernatant, on 25%– 45% Percoll gradients to collect LSECs and Kupffer cells (KCs), as described [18]. Mouse LSECs were obtained after a panning step of 8 min at 37°C to remove KCs. The purity of mLSECs was between 90 and 95% as judged by fenestration assessed by scanning electron microscopy and positive immunostaining for the LSEC specific marker, stabilin 2. The remaining 5–10% of cells in these cultures represented KCs/monocytes and stellate cells.
Primary mouse and human liver cell cultures were established on glass cover slides pre-coated with collagen type I and human fibronectin, respectively. […]

Row | Substance | inhibition of uptake of FITC-fNLPNTL in hLSECs by competitor (human LSECs (hLSECs)) | inhibition of uptake of FITC-fNLPNTL in mLSECs by competitor (mouse LSECs (mLSECs)) | uptake in the liver compared to that of native fNLPNTL ([1]; 30 min post injection) | major organ of uptake ([1]; organs analysed 30 min post injection after systemic perfusion, radioactivity as % of total recovered) | inhibition of uptake of FITC-fNLPNTL in hHeps by competitor [2] | inhibition of uptake of FITC-fNLPNTL in mHeps by competitor (mouse Heps (mHeps))
1 | FSA: Formaldehyde-treated bovine serum albumin, ligand specifically endocytosed by the LSECs scavenger receptors | inhibited | inhibited |  |  |  | 
2 | Fluorescein-isothiocyanate- N-Formyl-Nle-Leu-Phe-Nle-Tyr-Lys [FITC-fNLPNTL, fluorescein isothiocyanate derivative of fNLPNTL from Thermo Scientific] |  |  | three-fold higher | liver |  | 
3 | N-Formyl-Nle-Leu-Phe-Nle-Tyr-Lys [fNLPNTL, N-formyl peptide purchased from Phoenix Pharmaceuticals] | less marked effect | less marked effect |  |  | blocked | blocked
